Patent publication US20090203594A1, “Anticancer peptide” (priority 2004, published 2009)
Where two headings read alike, the source gives them in different places. No end group written: not given here.

Tests used:
[1] = test system: cell clones from the CEM leukemic cell system; assay: pDBD*4 in glucocorticoid-susceptible and -resistant clones of the CEM leukemic cell system; type: cell-based, human
Procedure: pDBD*4 was tested in cell clones from the CEM leukemic cell system. Some of those clones are susceptible to apoptotic cell death evoked by steroids of the glucocorticoid class; others are not. Both types of clones were killed by electroporation of pDBD*4 into the cells, whereas exogenous application of pDBD*4 produced no effect.

[2] = test system: ICR 27 leukemic cells; assay: Reduction in ICR 27 leukemic cells by exogenous application of peptide (cell count); type: cell-based, human; conditions: for cell killing: ICR-27, peptide added exogenously without electroporation; for Cells/ml after 23 h: 1 h in serum-free medium then growth medium, average of duplicate counts
Procedure: At the maximum dose tested in this experiment, pDBD*4R9 caused over a 2-log loss of cells.
At t=0, growing cells were removed from medium, washed, and plated at 4.0×10^6 cells/ml in serum-free medium to which the peptide was added from a stock solution. Control peptide was GnRHR7 (Gonadotropin Releasing Hormone with a 7-arginine polymer added covalently). One hour later cells were diluted into growth medium. After 23 h, each culture was counted in duplicate. Average values are shown. Similar dose-related responses to pDBD*4R9 have been seen in 3 experiments.

[3] = test system: ICR-27 lymphoblastic clonal cell line; assay: Electroporation of pDBD*4 into ICR-27 cells, cell death; type: cell-based, human; conditions: transfected by electroporation
Procedure: FIG. 1 (A and B). Human leukemic ICR-27-4 cells were electroporated (500 μF, 300V) with 2 μg pDBD*4 peptide or without peptide (Control). Equal concentrations of cells were then plated and quantified for viable cell numbers over time.
(§1) Derivation of ICR-27 cells is found in Molecular & Cellular Biology (1981) 1:512-21 and of CEM1-15 and CEM7-14 in Genomics (2003) 81:175-97.
Equal concentrations of cells were then plated.
In FIG. 1A, cell viability was evaluated after 4 hr using the WST-1 dye reduction assay (8,9). Quadruplicate wells of a 96 well plate each received 200 μl of cells plus 20 μl of WST-1 dye. The plate was then placed in a tissue culture incubator for 4 hours. Spectrophotometric analysis was carried out on a plate reader with Absorbance read at 450-595 nm. Absorbancies were corrected for the average of triplicate chemical blanks (200 μl growth medium plus 20 μl WST-1 dye). Data are presented as percent of control.
In FIG. 1B, cell concentrations were determined after 4 hr. and 24 hr. by hemocytometer counts of duplicate aliquots, with trypan blue dye added in the 24 hr samples to discriminate non-viable, but membrane-intact cells.

[4] = test system: CEM 1-15 lymphoblastic clonal cell line; assay: Electroporation of pDBD*4 into CEM 1-15 cells, cell death; type: cell-based, human; conditions: transfected by electroporation
Description: as §1

[5] = test system: CEM C7-14 lymphoblastic clonal cell line; assay: Electroporation of pDBD*4 into CEM C7-14 cells, cell death; type: cell-based, human; conditions: transfected by electroporation
Description: as §1

[6] = test system: colon cancer line, CaCo-2; assay: WST viability assay, colon cancer line; type: cell-based
Procedure: (§2) For each cell line, the protocol was the same for determining the effects of pDBD*4R9.
(§3) Cells were plated in equal numbers and washed free of growth medium.
(§4) The peptide pDBD*4R9 was then added to the cells for one hour, after which they were returned to growth medium.
(§5) At a suitable interval thereafter, they were assayed for viability by use of the WST assay (described above), which measures the ability of viable cells' mitochondria to metabolize and therefore change the color of a water soluble tetrazolium dye (WST). By measuring the absorbance of the color, one has a quantitative correlate of viability: More absorbance=more viable cells.

[7] = test system: MCF-7 breast cancer cells; assay: WST-1 dye reduction viability assay, MCF-7; type: cell-based, human
Procedure: (§6) A more quantitative assay was carried out using as an endpoint the reduction of a water-soluble tetrazolium dye (WST-1). This method has been employed to follow the effects of various chemotherapeutic agents on malignant cells (Hwang, W. S., Chen, L. M., Huang, S. H., Wang, C. C., Tseng, M. T. Prediction of chemotherapy response in human leukemia using in vitro chemosensitivity test. Leuk Res. 17:685-688, 1993; Pieters, R., Loonen, A. H., Huismans, D. R., Broekema, G. J., Dirven, M. W., Heyenbrok, M. W., Hahlen, K., Veerman, A. J. In vitro drug sensitivity of cells with children with leukemia using the MTT assay with approved culture conditions. Blood 76:2327-2336, 1990).
(§7) Viable cells can reduce the dye; dead cells cannot. The effects on pDBD*4R9 on MCF-7 breast cancer cells and non-malignant NIH-3T3 cells were compared (Table 2).
(§8) 20,000 cells were plated in triplicate in a 96 well plate. 24 hr later, cells were washed once and growth medium was replaced with serum free medium containing pDBD*4R9 (termed ‘Frag49’ in the table) or no peptide (Control) and placed in a tissue culture incubator at 37 deg. After 1 hr, serum-containing medium was added to each well and the plates were reincubated for 5 hr. 20 μl of WST-1 dye was then added to each well, and 4 hr later, Absorbance at 450-595 nm was determined spectrophotometrically. A chemical blank (avg. of 4 wells, medium plus dye only) was subtracted from each raw score.

[8] = test system: CEM cell clone C1-15; assay: Exogenous peptide on CEM clone C1-15; type: cell-based, human; conditions: CEM clone C1-15, peptide administered exogenously
Procedure: (§9) As shown below, pDBD*R9 was administered to CEM cell clones ICR-27, C7-14, and C1-15. Two of these clones are resistant to the synthetic glucocorticoid dexamethasone, commonly used in the treatment of acute lymphoblastic leukemia.

[9] = test system: human leukemic CEM C714 cells; assay: Exogenous peptide on CEM C7-14 leukemic cells (WST viability); type: cell-based
Procedure: as §9, §2, §3, §4, §5

[10] = test system: non-malignant NIH-3T3 cells; assay: WST-1 dye reduction viability assay, NIH-3T3; type: cell-based
Procedure: as §6, §7, §8

[11] = test system: basal cell carcinoma cells; assay: Killing of basal cell carcinoma cells; type: cell-based; conditions: line of basal cell carcinoma cells
[12] = test system: breast cancer GT-MCF-7 cells; assay: AlarmarBlue viability assay on GT-MCF-7 cells; type: cell-based, human; conditions: GT-MCF-7, four-hour treatment
Procedure: as §2
Cells were plated in equal numbers and washed free of growth medium. […]
In the experiment on MCF-7 cells, an equivalent assay (AlarmarBlue) was used.

[13] = test system: MCF-7 breast cancer cells; assay: Killing of MCF-7 breast cancer cells (qualitative); type: cell-based, human
[14] = test system: SWB-39 glioma; assay: Killing of SWB-39 glioma cells; type: cell-based
[15] = MCF-7, 1 h peptide, 5 h reincubation, 4 h dye, blank subtracted
[16] = NIH-3T3, 1 h peptide, 5 h reincubation, 4 h dye, blank subtracted

Substance: tyr-leu-cys-ala-gly-arg-asn-asp-cys-ile-ile-ala-ile-lys-phe-glu-glu-lys-thr-ala-gln-his-ala-ala-ile-glu-asn-val-phe-arg-leu-glu (YLCAGRNDCIIAIKFEEKTAQHAAIENVFRLE) [pDBD*4, 32-amino acid synthetic polypeptide, portion of the 89 aa peptide encoded by gene 398-465*]
- cell killing ([1]; electroporation into glucocorticoid-susceptible and non-susceptible CEM clones): killed
- effect on cells ([1]; exogenous application, CEM clones): no effect
- cell killing [2]: did not
- cell death [3]: causes cell death
- cell death [4]: causes cell death
- cell death [5]: causes cell death

Substance: RRRRRRRRRYLCAGRNDCIIAIKFEEKTAQHAAIENVFRLE (cysteines drawn unpaired) [pDBD*4R9]
- Absorbance ([6]; Expt 1, 25 microM, duplicates, avg +/- range): 0.08 +/− 0.01
- Absorbance ([6]; Expt 1, 50 microM, duplicates, avg +/- range): 0.16 +/− 0.005
- Absorbance ([6]; Expt 2, 100 microM, triplicates, avg +/- 1 SD): 0.19 +/− 0.05
- estimated cell kill ([6]; colon cancer cells, single treatment, 25-100 microM): 50-75%
- average reduction in ability to metabolize the tetrazolium dye ([7]; MCF-7, dose of Table 2): over 3 fold
- WST-1 Absorbance, 450-595 nm, Well 1 [7, 15]: 0.045
- WST-1 Absorbance, 450-595 nm, Well 2 [7, 15]: 0.087
- WST-1 Absorbance, 450-595 nm, Well 3 [7, 15]: 0.289
- WST-1 Absorbance, 450-595 nm, Avg. ([7]; MCF-7, average of 3 wells): 0.140
- cell killing [8]: killed in a dose-dependent manner
- anticancer effect (FIG. 3) ([9]; CEM C714 cells): significant anticancer effects
- cell killing ([9]; CEM clone C7-14, peptide administered exogenously): killed in a dose-dependent manner
- metabolism of the tetrazolium dye ([10]; NIH-3T3, dose of Table 2): not significantly altered
- WST-1 Absorbance, 450-595 nm, Well 1 [10, 16]: 0.199
- WST-1 Absorbance, 450-595 nm, Well 2 [10, 16]: 0.216
- WST-1 Absorbance, 450-595 nm, Well 3 [10, 16]: 0.196
- WST-1 Absorbance, 450-595 nm, Avg. ([10]; NIH-3T3, average of 3 wells): 0.204
- killing activity / cell death [11]: caused death
- killing activity / cell death ([11]; listed as pDBD*R9): Killing activity
- Cells/ml after 23 h ([2]; 5 μM peptide): 1.8 × 10^5 Cells/ml
- Cells/ml after 23 h ([2]; 10 μM peptide): 1.95 × 10^5 Cells/ml
- Cells/ml after 23 h ([2]; 20 μM peptide): 0.5 × 10^5 Cells/ml
- cell loss / growth inhibition with increasing concentrations ([2]; ICR27-4, increasing concentrations): caused cell loss in a dose-dependent manner
- loss of cells ([2]; ICR27-4, maximum dose tested): > 2 log
- cell killing [2]: killed the cells in a dose dependent manner
- cell killing ([2]; listed as pDBD*R9): killed in a dose-dependent manner
- anticancer effect (FIG. 2) [12]: significant anticancer effects
- killing activity / cell death [13]: caused death
- killing activity / cell death ([13]; listed as pDBD*R9): Killing activity
- killing activity / cell death [14]: caused death
- killing activity / cell death ([14]; listed as pDBD*R9): Killing activity
